Results: patent US20260097017A1, “TASIPIMIDINE AND CYP2D6 INHIBITOR COMBINATION TREATMENT” (ORION CORPORATION, priority 2022, published 2026)

Legend:
[1] = biological target: T1, CYP1A1 (Homo sapiens, UniProt P04798); assay: Recombinant human CYP incubations (enzyme identification); format: in vitro ADME
T1 construct: purchased; host or cells: baculovirus-transfected insect cells
T1 sequence (P04798 1-512): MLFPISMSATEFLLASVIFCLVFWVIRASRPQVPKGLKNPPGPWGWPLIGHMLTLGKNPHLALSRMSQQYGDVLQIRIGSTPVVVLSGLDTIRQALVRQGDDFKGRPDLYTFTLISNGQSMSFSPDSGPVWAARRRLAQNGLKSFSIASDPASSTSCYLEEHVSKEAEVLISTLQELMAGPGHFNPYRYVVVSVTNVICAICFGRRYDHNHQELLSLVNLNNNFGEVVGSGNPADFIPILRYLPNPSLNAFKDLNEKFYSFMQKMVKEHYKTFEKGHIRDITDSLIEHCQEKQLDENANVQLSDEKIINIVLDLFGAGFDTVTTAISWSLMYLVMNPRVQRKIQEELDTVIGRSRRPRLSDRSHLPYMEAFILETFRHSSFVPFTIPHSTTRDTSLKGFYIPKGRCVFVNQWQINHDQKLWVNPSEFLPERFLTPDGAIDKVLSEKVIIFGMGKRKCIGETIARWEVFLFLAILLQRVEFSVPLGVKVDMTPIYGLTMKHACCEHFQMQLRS
Description: (§1) The objective of these studies was to identify enzymes involved in the metabolism of tasipimidine in human. The test substance tasipimidine and the reference compounds for main tasipimidine metabolites 1-(4,5-dihydro-1H-imidazol-2-yl) isochroman-5-ol (metabolite 1), 2-(5-methoxyisochroman-1-yl)-1H-imidazole (metabolite 2), and 1-(1H-imidazol-2-yl) isochroman-5-ol (metabolite 3) were supplied by Orion Pharma. To further support the findings of recombinant enzyme incubations tasipimidine was incubated with human hepatocytes with two enzyme inhibitors, i.e. 1-aminobenzotriazole (ABT, non-selective CYP inhibitor), and quinidine (CYP2D6 inhibitor).
The analysis for disappearance of tasipimidine and the identification of the formed metabolites were carried out by using a high-resolution liquid chromatographic-mass spectrometer supported by accurate masses (UPLC-HRMS). Firstly, metabolic stability of tasipimidine in different in vitro matrices was determined by monitoring the disappearance of the parent compound as a function of time. Moreover, structures of the formed metabolites were characterized from their respective product ion spectra. The synthetized reference compounds of the metabolites were used to confirm the identification of those specific metabolites.

[2] = biological target: CYP2D6 (Homo sapiens, UniProt P10635); assay: Incubation with rhCYP2D6 Supersomes: intrinsic clearance and enzyme kinetics; format: in vitro ADME; design: purchased; host or cells: baculovirus-transfected insect cells
Sequence of CYP2D6 (P10635 whole entry): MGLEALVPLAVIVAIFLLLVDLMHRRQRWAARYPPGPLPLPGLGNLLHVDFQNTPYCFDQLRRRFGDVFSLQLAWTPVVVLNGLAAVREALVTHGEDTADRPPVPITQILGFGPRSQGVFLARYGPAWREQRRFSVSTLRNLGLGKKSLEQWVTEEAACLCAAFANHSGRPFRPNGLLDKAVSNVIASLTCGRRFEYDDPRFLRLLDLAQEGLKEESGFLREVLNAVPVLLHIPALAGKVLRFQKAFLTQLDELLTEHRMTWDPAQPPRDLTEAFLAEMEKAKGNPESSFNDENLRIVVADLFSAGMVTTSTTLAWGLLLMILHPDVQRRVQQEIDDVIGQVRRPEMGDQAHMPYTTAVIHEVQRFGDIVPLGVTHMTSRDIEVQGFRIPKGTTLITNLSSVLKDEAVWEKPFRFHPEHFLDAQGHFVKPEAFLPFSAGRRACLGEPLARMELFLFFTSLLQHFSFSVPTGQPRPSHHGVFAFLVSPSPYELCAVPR
Description: as §1
Moreover, enzyme kinetics of tasipimidine metabolism was studied in rhCYP2D6.
Enzyme kinetics of tasipidimine metabolism by rhCYP2D6 was studied by incubating the test compound at 0.16, 0.41, 1, 2.6, 6.4, 16, 40 and 100 μM concentrations containing 10 pmol/ml of the CYP enzyme for 0, 5, 10, 20, and 30 min. Enzyme kinetics was estimated from CLint values measured for the test compound at different concentrations while metabolite characterisation was not performed.
The analysis for disappearance of tasipimidine and the identification of the formed metabolites were carried out by using a high-resolution liquid chromatographic-mass spectrometer supported by accurate masses (UPLC-HRMS). […]

SMILES: COc1cccc2c1CCOC2C1=NCCN1 (stereo not drawn) [tasipimidine, 2-(5-methoxyisochroman-1-yl)-4,5-dihydro-1H-imidazole]
- contribution of enzyme to tasipimidine metabolism [1]: minor contributors
- contribution of enzyme to tasipimidine metabolism ([2]; CYP2D6, human in vitro systems): major enzyme
- intrinsic clearance (CLint) ([2]; tasipimidine 1 μM in rhCYP2D6): 1.75 μl/min/pmol CYP
